In patent US20230265151A1, “GIP/GLP1 CO-AGONIST COMPOUNDS” (priority 2020, published 2023):
Like-named read-outs stand apart in the source and are kept apart here. *1 amine or outer side, *2 acyl side, *3 side chain or, on linkers, in order; H or OH if unused. Where a SMILES comes first, the peptide text is derived from it. Side-chain parts run from the residue outwards. [ ]: non-standard residue; d: D form. The star is where a group is joined. αMePhe(2-F) = C[C@](N)(Cc1ccccc1F)C(=O)O; γGlu = O=C(O)[C@H](CCC(=O)[*:2])N[*:1]; C14 diacid = O=C(O)CCCCCCCCCCCCC(=O)*; αMeY = C[C@](N)(Cc1ccc(O)cc1)C(=O)O; 4Pal = N[C@@H](Cc1ccncc1)C(=O)O; αMeL = CC(C)C[C@](C)(N)C(=O)O; Orn = NCCC[C@H](N)C(=O)O; AEEA = NCCOCCOCC(=O)O; Aib = CC(C)(N)C(=O)O

Experiments:
Assay type in all cases: cell-based
hGIPR = molecular target: T1, hGIPR (Homo sapiens, UniProt P48546); assay: Functional cAMP formation (HTRF) in HEK-293 clonal cells expressing hGIPR, 0.1% bovine casein, without or with 1.0% human serum albumin; settings: for EC50: geometric mean, read-out: hGIPR EC50, nM (SEM, n); for Emax: HEK293, 0.1% bovine casein and 1.0% human serum albumin, percent of maximal response to GIP(1-42)NH2, read-out: hGIPR Emax, % ± SEM
T1 construct: expressed in transfected cells
T1 sequence (P48546 22-466): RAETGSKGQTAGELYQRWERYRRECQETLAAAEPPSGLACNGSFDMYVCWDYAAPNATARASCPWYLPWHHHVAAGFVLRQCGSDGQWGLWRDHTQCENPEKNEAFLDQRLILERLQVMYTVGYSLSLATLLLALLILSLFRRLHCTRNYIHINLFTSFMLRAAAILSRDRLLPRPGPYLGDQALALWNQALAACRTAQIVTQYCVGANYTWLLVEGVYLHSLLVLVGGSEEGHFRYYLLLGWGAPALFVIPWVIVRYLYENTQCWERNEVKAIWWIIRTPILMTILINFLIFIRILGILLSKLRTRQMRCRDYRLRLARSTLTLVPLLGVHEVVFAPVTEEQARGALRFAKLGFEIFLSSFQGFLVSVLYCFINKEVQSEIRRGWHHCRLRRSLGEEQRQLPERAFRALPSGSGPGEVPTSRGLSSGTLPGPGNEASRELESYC
Method in brief: (§1)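 Cells were stimulated with peptide for 30 min at 37° C, then lysed in buffer carrying cAMP-d2 and anti-cAMP Eu3+-cryptate for a competitive HTRF read after at least 60 min at room temperature. The 665/620 nm ratio was converted to nM cAMP against a standard curve.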

hGCGR = molecular target: T2, hGCGR (Homo sapiens, UniProt P47871); assay: Functional cAMP formation (HTRF) in HEK-293 clonal cells expressing hGCGR, 0.1% bovine casein, without or with 1.0% human serum albumin; settings: geometric mean, read-out: hGCGR EC50, nM (SEM, n)
T2 construct: expressed in transfected cells
Method in brief: as §1

hGLP-1R = hGLP-1R (Homo sapiens, UniProt P43220); assay: Functional cAMP formation (HTRF) in HEK-293 clonal cells expressing hGLP-1R, 0.1% bovine casein, without or with 1.0% human serum albumin; parameters: expressed in transfected cells; settings: for Emax: read-out: hGLP-1R Emax, % ± SEM; for EC50: cAMP, 0.1% bovine casein (no human serum albumin), geometric mean, read-out: hGLP-1R EC50, nM (SEM, n)
Method in brief: as §1

[1] = 0.1% bovine casein and 1.0% human serum albumin, 37° C.
[2] = cAMP, 37° C., 0.1% bovine casein (no human serum albumin)
[3] = HEK293, 0.1% bovine casein and 1.0% human serum albumin, 37° C., percent of maximal response to GLP-1(7-36)NH2
[4] = cAMP, incubated at 37° C., 0.1% bovine casein (no human serum albumin)

T2 sequence (P47871 26-477): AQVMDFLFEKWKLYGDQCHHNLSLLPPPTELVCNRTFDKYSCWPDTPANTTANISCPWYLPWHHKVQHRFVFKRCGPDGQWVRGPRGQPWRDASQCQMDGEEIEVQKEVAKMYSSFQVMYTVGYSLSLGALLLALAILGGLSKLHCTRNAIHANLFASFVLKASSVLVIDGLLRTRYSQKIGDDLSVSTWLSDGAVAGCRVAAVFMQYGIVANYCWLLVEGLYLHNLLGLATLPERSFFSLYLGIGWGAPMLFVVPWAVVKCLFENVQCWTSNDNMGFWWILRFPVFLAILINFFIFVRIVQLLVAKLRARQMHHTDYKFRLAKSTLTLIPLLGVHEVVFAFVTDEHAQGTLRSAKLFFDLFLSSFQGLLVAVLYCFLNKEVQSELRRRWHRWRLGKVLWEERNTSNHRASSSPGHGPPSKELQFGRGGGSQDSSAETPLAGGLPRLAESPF
Chain of hGLP-1R (P43220 24-463): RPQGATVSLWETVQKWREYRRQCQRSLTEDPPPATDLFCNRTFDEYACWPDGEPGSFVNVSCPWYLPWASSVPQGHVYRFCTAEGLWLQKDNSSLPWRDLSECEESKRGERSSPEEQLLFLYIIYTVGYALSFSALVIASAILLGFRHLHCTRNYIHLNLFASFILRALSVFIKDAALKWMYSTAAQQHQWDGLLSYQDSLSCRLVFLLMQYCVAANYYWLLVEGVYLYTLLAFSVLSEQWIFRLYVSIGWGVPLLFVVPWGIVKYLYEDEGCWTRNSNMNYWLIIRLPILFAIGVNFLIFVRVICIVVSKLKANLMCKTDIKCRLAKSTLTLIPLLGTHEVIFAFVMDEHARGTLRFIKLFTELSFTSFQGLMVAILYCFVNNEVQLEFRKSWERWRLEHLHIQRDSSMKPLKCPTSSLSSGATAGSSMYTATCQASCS

`CC[C@H](C)[C@H](NC(=O)[C@H](CCCN)NC(=O)[C@H](CC(=O)O)NC(=O)[C@H](CC(C)C)NC(=O)[C@](C)(CC(C)C)NC(=O)[C@@H](NC(=O)C(C)(C)NC(=O)[C@H](Cc1ccc(O)cc1)NC(=O)[C@H](CC(=O)O)NC(=O)[C@H](CO)NC(=O)[C@@H](NC(=O)[C@](C)(Cc1ccccc1F)NC(=O)[C@@H](NC(=O)CNC(=O)[C@H](CCC(=O)O)NC(=O)C(C)(C)NC(=O)[C@@H](N)Cc1ccc(O)cc1)[C@@H](C)O)[C@@H](C)O)[C@@H](C)CC)C(=O)N[C@@H](C)C(=O)N[C@@H](CCC(N)=O)C(=O)NC(C)(C)C(=O)N[C@@H](CCCN)C(=O)N[C@@H](Cc1ccccc1)C(=O)N[C@H](C(=O)N[C@@H](CCCCNC(=O)COCCOCCNC(=O)COCCOCCNC(=O)CC[C@H](NC(=O)CCCCCCCCCCCCC(=O)O)C(=O)O)C(=O)N[C@@](C)(Cc1ccc(O)cc1)C(=O)N[C@@H](CC(C)C)C(=O)N[C@H](C(=O)N[C@@H](CCCCNC(=O)COCCOCCNC(=O)COCCOCCNC(=O)CC[C@H](NC(=O)CCCCCCCCCCCCC(=O)O)C(=O)O)C(=O)NCC(=O)NCC(=O)N1CCC[C@H]1C(=O)N[C@@H](CO)C(=O)N[C@@H](CO)C(=O)NCC(=O)N[C@@H](C)C(=O)N1CCC[C@H]1C(=O)N1CCC[C@H]1C(=O)N1CCC[C@H]1C(=O)N[C@@H](CO)C(N)=O)[C@@H](C)CC)[C@@H](C)CC` [Example 316] gave an EC50 (hGIPR; [1]) of 1.11 nM, an EC50 (hGIPR; [2]) of 0.0316 nM and an EC50 (hGCGR; [1]) greater than 9950 nM. It also gave an EC50 (hGCGR; [2]) greater than 9950 nM, an Emax (hGLP-1R; [3]) of 113% and an Emax (hGLP-1R; HEK293, cAMP, 37° C., 0.1% bovine casein, percent of maximal response to GLP-1(7-36)NH2, arithmetic mean) of 109%. The EC50 (hGLP-1R; 37° C.) was 0.571 nM.
With `CC[C@H](C)[C@H](NC(=O)CNC(=O)[C@H](Cc1ccncc1)NC(=O)[C@H](CC(=O)O)NC(=O)[C@H](CO)NC(=O)[C@@H](NC(=O)[C@](C)(Cc1ccccc1F)NC(=O)[C@@H](NC(=O)CNC(=O)[C@H](CCC(=O)O)NC(=O)C(C)(C)NC(=O)[C@@H](N)Cc1ccc(O)cc1)[C@@H](C)O)[C@@H](C)O)C(=O)N[C@@](C)(CC(C)C)C(=O)N[C@@H](CC(C)C)C(=O)N[C@@H](CC(=O)O)C(=O)N[C@@H](CCCN)C(=O)N[C@@H](CCCCNC(=O)COCCOCCNC(=O)COCCOCCNC(=O)CC[C@H](NC(=O)CCCCCCCCCCCCC(=O)O)C(=O)O)C(=O)N[C@@H](C)C(=O)N[C@@H](CCC(N)=O)C(=O)NC(C)(C)C(=O)N[C@@H](CCC(=O)O)C(=O)N[C@@H](Cc1ccccc1)C(=O)N[C@H](C(=O)N[C@H](CCC(=O)O)C(=O)N[C@@](C)(Cc1ccc(O)cc1)C(=O)N[C@@H](CC(C)C)C(=O)N[C@H](C(=O)N[C@@H](CCC(=O)O)C(=O)NCC(=O)NCC(=O)N[C@@H](CCCCNC(=O)COCCOCCNC(=O)COCCOCCNC(=O)CC[C@H](NC(=O)CCCCCCCCCCCCC(=O)O)C(=O)O)C(=O)N[C@@H](CO)C(=O)N[C@@H](CO)C(=O)NCC(=O)N[C@@H](C)C(=O)N1CCC[C@H]1C(=O)N1CCC[C@H]1C(=O)N1CCC[C@H]1C(=O)N[C@@H](CO)C(N)=O)[C@@H](C)CC)[C@@H](C)CC` [Example 100] (H-Y[Aib]EGT[αMePhe(2-F)]TSD[4Pal]GI[αMeL]LD[Orn]K([AEEA-AEEA-γGlu-C14 diacid])AQ[Aib]EFI[dE][αMeY]LIEGGK([AEEA-AEEA-γGlu-C14 diacid])SSGAPPPS-NH2; N-terminus assumed) the Emax (hGIPR; 37° C.) was 98.3%, the EC50 (hGCGR; [1]) was greater than 9950 nM and the EC50 (hGCGR; [4]) was greater than 9950 nM. It also gave an Emax (hGLP-1R; [3]) of 123%, an Emax (hGLP-1R; HEK293, percent of maximal response to GLP-1(7-36)NH2, 37° C., 0.1% bovine casein, arithmetic mean) of 111% and an EC50 (hGLP-1R; incubated at 37° C.) of 11.4 nM.
Molecule `CC[C@H](C)[C@H](NC(=O)[C@H](CC(C)C)NC(=O)[C@](C)(Cc1ccc(O)cc1)NC(=O)[C@@H](CCC(=O)O)NC(=O)[C@@H](NC(=O)[C@H](Cc1ccccc1)NC(=O)[C@H](CCC(=O)O)NC(=O)C(C)(C)NC(=O)[C@H](CCC(N)=O)NC(=O)[C@H](C)NC(=O)[C@H](CCCCNC(=O)COCCOCCNC(=O)COCCOCCNC(=O)CC[C@H](NC(=O)CCCCCCCCCCCCC(=O)O)C(=O)O)NC(=O)[C@H](CCCN)NC(=O)[C@H](CC(=O)O)NC(=O)[C@H](CC(C)C)NC(=O)[C@](C)(CC(C)C)NC(=O)[C@@H](NC(=O)C(C)(C)NC(=O)[C@H](Cc1ccc(O)cc1)NC(=O)[C@H](CC(=O)O)NC(=O)[C@H](CO)NC(=O)[C@@H](NC(=O)[C@](C)(Cc1ccccc1F)NC(=O)[C@@H](NC(=O)CNC(=O)[C@H](CCC(=O)O)NC(=O)C(C)(C)NC(=O)[C@@H](N)Cc1ccc(O)cc1)[C@@H](C)O)[C@@H](C)O)[C@@H](C)CC)[C@@H](C)CC)C(=O)N[C@@H](CCCCNC(=O)COCCOCCNC(=O)COCCOCCNC(=O)CC[C@H](NC(=O)CCCCCCCCCCCCC(=O)O)C(=O)O)C(=O)NCC(=O)NCC(=O)N1CCC[C@H]1C(=O)N[C@@H](CO)C(=O)N[C@@H](CO)C(=O)NCC(=O)N[C@@H](C)C(=O)N1CCC[C@H]1C(=O)N1CCC[C@H]1C(=O)N1CCC[C@H]1C(=O)N[C@@H](CO)C(N)=O` [Example 231] has an EC50 (hGIPR; [1]) of 2.46 nM, an Emax (hGIPR; 37° C.) of 85.4% and an EC50 (hGIPR; [4]) of 0.0184 nM. The EC50 (hGCGR; [1]) was greater than 9950 nM, the EC50 (hGCGR; [4]) was greater than 9950 nM and the Emax (hGLP-1R; [3]) was 109%. For the same molecule, the EC50 (hGLP-1R; incubated at 37° C.) was 1.22 nM.
